System: not listed separately
Experiment: Antiproliferative activity against human Toledo cells expressing wild-type EZH2 assessed as growth inhibition measured after 72 hrs by AlamaBlue assay
Molecule `COc1ccc2nc(Nc3nc(O)cc(CSc4nnnn4-c4ccccc4)n3)nc(C)c2c1` has an IC50 of 24.1 µM.

System: DB
Experiment: Antiproliferative activity against human DB cells expressing EZH2 mutant assessed as growth inhibition measured after 72 hrs by AlamaBlue assay
In the case of `COc1ccc2nc(Nc3nc(O)cc(CSc4nnnn4-c4ccccc4)n3)nc(C)c2c1`, the IC50 is reported as 32.8 µM.

Target: T1, Histone-lysine N-methyltransferase EZH2 (Homo sapiens, UniProt Q15910)
Experiment: Inhibition of PRC2 EZH2 sub unit (unknown origin) assessed as inhibition of SAM-mediated methyl transfer process at 50 uM preincubated for 15 mins followed by addition of H3K27me and [3H]SAM as substrate measured after 90 mins by radioactive methylation assay
Target sequence in this assay (Q15910 whole entry, looked up): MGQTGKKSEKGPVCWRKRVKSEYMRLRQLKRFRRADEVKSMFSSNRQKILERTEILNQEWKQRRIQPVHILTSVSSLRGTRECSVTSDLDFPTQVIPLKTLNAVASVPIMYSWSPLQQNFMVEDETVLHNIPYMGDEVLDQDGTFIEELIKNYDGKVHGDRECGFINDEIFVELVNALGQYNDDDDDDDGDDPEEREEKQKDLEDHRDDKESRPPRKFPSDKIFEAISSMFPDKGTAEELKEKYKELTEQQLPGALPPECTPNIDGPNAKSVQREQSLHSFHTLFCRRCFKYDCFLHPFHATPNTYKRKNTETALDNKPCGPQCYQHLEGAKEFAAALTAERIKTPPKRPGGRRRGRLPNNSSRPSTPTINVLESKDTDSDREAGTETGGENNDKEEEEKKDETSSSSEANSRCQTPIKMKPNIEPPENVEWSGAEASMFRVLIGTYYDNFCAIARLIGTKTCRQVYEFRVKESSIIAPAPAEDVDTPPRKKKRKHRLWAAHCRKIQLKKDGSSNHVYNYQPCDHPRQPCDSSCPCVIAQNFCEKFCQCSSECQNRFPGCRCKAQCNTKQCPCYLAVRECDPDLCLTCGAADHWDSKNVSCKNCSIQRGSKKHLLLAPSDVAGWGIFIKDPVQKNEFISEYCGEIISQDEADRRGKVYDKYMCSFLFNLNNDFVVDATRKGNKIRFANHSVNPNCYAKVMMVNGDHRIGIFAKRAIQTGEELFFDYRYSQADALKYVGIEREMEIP
Work on `O=C1CC(=C2c3ccccc3-c3ccccc32)C(=O)N1CCN1CCN(c2cccc(Cl)c2)CC1` yielded an inhibition of 29%. `CCOC(=O)C[n+]1ccc2c([nH]c3ccccc32)c1C` showed an inhibition of 7%. For `O=C1C(Cc2ccccc2)=C(O)c2cccc3c2C1=C(O)CC3`, the inhibition was 11%. `Cc1ccc(-n2nc3cc(C)c(NC(=O)NC(=O)Cc4ccccc4)cc3n2)cc1` showed an inhibition of 0%. `CC(=O)Nc1cc(C(=O)OC(C(=O)c2ccccc2)c2ccccc2)ccc1C` (configuration not stated) showed an inhibition of 2%. Work on `O=c1c(-c2ccccc2)c(O)c2c(n1-c1ccccc1)CCCC2` yielded an inhibition of -2%. `N/N=C1/CCCc2c1[nH]c1ccc(F)cc21` showed an inhibition of 18%. In the case of `NS(=O)(=O)c1ccc(NC(=O)CN2C(=O)c3cccc4cccc(c34)C2=O)cc1`, the inhibition is reported as 14%. With `CC12CCCc3c(-c4ncn[nH]4)c(-c4ccccc4)c(=O)n(c31)-c1ccccc12` (configuration not stated) the inhibition was 1%. Molecule `O=C(NC1CCSC1=O)c1cccc(C(=O)NC2CCSC2=O)c1` (configuration not stated) has an inhibition of 6%. Molecule `Cc1ccc2nc(Nc3nc(O)cc(CSc4nnnn4-c4ccccc4)n3)nc(C)c2c1` has an inhibition of 28%. With `Cc1cc(C)nc(Nc2n[nH]c(-c3ccccc3Cl)n2)n1` the inhibition was 17%. Work on `O=C1c2ccccc2-c2cccc3c2c1cc1ccccc13` yielded an inhibition of 34%. In the case of `Cc1ccc2c(C)nc(Nc3nc(O)cc(CSc4nnnn4-c4ccccc4)n3)nc2c1`, the inhibition is reported as 19%. In the case of `OCCNCC(O)Cn1c2ccc(Br)cc2c2cc(Br)ccc21` (configuration not stated), the inhibition is reported as -9%. Molecule `CCOc1ccc(NC(=N)Nc2nc(O)cc(CSc3nnnn3-c3ccccc3)n2)cc1` has an inhibition of -1%. For `CN1c2ccccc2Oc2nnc(N3CCN(C(c4ccccc4)c4ccccc4)CC3)cc21`, the inhibition was -7%. `COc1ccc(C(=O)C(OC(=O)c2ccc(C)c(NC(C)=O)c2)c2ccccc2)cc1` (configuration not stated) gave an inhibition of 9%. In the case of `Cc1cc(C)nc(NC2=NCCS2)n1`, the inhibition is reported as 16%. `NC(=O)c1ccc(N=C2C(=O)Nc3ccc([N+](=O)[O-])cc32)cc1` showed an inhibition of 6%. For `O=C1c2ccccc2NC(c2c[nH]nc2-c2ccccc2)N1O` (configuration not stated), the inhibition was 9%. `COc1ccc(CN2CCN(c3cc(C)c(C#N)c4nc5ccccc5n34)CC2)cc1` showed an inhibition of 0%. Molecule `Cc1cc(O)nc(Nc2ccccc2)n1` has an inhibition of -2%. For `Cc1ccc2nc(N=C(N)N)nc(C)c2c1`, the inhibition was 3%. Molecule `COc1ccc2nc(Nc3nc(O)cc(CSc4nnc(C)s4)n3)nc(C)c2c1` has an inhibition of -9%. `Cn1c(=O)cc2c3c(c(N4CCOCC4)ccc31)C(=O)c1ccccc1-2` showed an inhibition of 9%. `COc1ccc(-n2c(SCC(=O)c3ccc(Cl)cc3)nc3ccccc3c2=O)cc1` gave an inhibition of 5%. Molecule `COc1ccc2nc(Nc3nc(O)cc(CSc4nnnn4-c4ccccc4)n3)nc(C)c2c1` has an inhibition of 72%. With `NC(=O)CCN1CCN(CCOC2Cc3cc(Cl)ccc3Sc3ccccc32)CC1` (configuration not stated) the inhibition was -6%. `Cc1ccc(C(=O)CSc2nc3sc4c(c3c(=O)n2-c2ccccc2)CCCC4)s1` gave an inhibition of -1%. For `O=C(/C(=C(/[O-])c1ccc(Cl)cc1)[n+]1ccc2ccccc2c1)c1ccccc1`, the inhibition was 2%. Molecule `O=C(c1cnn2c1NC(c1ccc(Br)cc1)CC2C(F)(F)F)N1CCN2CCCC2C1` (configuration not stated) has an inhibition of -2%. `Cc1ccc2c(c1)C1CN(C)CCC1N2C(=O)c1ccc2ccccc2c1` (configuration not stated) gave an inhibition of 0%. For `Cn1c(-c2ccc(C=O)o2)nc2c3ccccc3c3ccccc3c21`, the inhibition was 52%. Work on `Cc1ccc2c(c1)C1CN(C)CCC1N2C(=O)Cc1ccc(Cl)cc1` (configuration not stated) yielded an inhibition of 4%. Molecule `N#C/C(=C/c1ccc(-c2ccc(C(N)=O)cc2)o1)c1nc2ccccc2[nH]1` has an inhibition of 41%. `CC1=CC(C)(C)Oc2c1c(=O)n(-c1ccccc1)c(=S)n2-c1ccc(C)cc1` showed an inhibition of 4%. With `CCN(CC)c1ccc2cc(-c3nnc(Nc4cc(OC)ccc4OC)o3)c(=O)oc2c1` the inhibition was 25%.

Target: DNA (cytosine-5)-methyltransferase 1 (Homo sapiens) (UniProt P26358)
Sequence (P26358 whole entry): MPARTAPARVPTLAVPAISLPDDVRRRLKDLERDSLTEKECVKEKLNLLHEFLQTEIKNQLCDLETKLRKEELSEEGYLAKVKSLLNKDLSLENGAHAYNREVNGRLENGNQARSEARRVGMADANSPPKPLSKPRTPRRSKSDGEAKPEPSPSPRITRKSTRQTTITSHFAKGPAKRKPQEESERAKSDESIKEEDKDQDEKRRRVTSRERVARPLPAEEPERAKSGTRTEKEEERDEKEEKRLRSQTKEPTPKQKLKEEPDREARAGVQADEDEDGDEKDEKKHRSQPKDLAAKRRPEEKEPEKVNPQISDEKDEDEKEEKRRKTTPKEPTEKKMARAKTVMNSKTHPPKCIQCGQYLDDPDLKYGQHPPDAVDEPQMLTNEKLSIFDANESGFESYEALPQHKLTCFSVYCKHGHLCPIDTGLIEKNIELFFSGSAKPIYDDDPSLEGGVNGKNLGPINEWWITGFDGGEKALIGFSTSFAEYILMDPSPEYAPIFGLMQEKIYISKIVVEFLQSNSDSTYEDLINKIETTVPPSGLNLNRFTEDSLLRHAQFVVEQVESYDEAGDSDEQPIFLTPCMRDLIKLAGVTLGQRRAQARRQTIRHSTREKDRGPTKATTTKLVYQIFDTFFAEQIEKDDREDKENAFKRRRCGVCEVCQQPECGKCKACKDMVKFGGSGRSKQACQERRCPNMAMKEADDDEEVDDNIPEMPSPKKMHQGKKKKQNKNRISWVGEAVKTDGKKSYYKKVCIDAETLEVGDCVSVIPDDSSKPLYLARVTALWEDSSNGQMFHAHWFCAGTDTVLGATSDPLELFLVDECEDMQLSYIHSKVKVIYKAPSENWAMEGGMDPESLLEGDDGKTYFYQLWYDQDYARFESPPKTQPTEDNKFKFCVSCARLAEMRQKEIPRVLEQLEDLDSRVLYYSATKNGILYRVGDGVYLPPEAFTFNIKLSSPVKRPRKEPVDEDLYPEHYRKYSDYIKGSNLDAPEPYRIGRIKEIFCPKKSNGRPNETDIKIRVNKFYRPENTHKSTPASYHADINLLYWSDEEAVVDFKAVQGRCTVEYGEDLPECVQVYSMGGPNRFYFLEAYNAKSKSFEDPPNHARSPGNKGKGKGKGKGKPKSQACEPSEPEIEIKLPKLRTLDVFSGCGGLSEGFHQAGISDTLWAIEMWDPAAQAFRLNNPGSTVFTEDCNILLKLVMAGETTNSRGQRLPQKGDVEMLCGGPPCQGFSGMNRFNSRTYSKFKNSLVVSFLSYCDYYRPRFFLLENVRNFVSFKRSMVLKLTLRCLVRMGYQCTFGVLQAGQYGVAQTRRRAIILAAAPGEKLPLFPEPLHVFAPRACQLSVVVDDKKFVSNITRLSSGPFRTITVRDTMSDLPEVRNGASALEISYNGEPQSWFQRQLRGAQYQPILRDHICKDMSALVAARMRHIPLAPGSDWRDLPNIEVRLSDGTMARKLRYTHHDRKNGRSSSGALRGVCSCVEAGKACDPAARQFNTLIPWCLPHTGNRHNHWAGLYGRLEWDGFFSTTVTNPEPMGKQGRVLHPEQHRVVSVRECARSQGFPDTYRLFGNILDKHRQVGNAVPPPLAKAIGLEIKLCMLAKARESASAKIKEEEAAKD
Experiment: Inhibition of human DNMT1 assessed as DNA methylation at 50 uM preincubated for 15 mins followed by addition of poly(dI-dC) and [3H]SAM as substrate measured after 2 hrs by radioactive methylation assay
`COc1ccc2nc(Nc3nc(O)cc(CSc4nnnn4-c4ccccc4)n3)nc(C)c2c1` gave an inhibition of 0%.

Target: T1, Histone-lysine N-methyltransferase EZH2
Experiment: Inhibition of PRC2 EZH2 sub unit (unknown origin) assessed as inhibition of SAM-mediated methyl transfer process preincubated for 15 mins followed by addition of H3K27me and [3H]SAM as substrate measured after 90 mins by radioactive methylation assay
Target sequence in this assay (Q15910 whole entry): as the sequence (Q15910 whole entry, looked up) above
In the case of `COc1ccc2nc(Nc3nc(O)cc(CSc4nnnn4-c4ccccc4)n3)nc(C)c2c1`, the IC50 is reported as 22.6 µM.
